Assay results: patent publication US9415021B2, “Synthesis of oxygen carrying, turbulence resistant, high density submicron particulates” (Nanoshell Company, LLC, priority 2009, dated 2016)

Experiment: Oxygen content of suspensions by glucose assay solution (glucose oxidase/peroxidase, absorbance at 540 nm) and Equation 1
Assay type: physicochemical
Conditions: 37° C., 1 AP
Method: To confirm the oxygen carrying capability of the single coated nanoemulsion particle AOCs, the amount of dissolved oxygen in water was measured. The linear dependence of the absorbance at 540 nm in response to the concentration of glucose was first confirmed at 37° C. in the presence of sufficient amount of oxygen, and then the limiting amount of oxygen concentration was estimated in the presence of sufficient amount of glucose. […] The DI water was added to make the total volume 1.41 μl and the absorbance determined at 540 nm. The absorbance was plotted against the molar concentration of dissolved oxygen assuming that the air at 1 AP and 37° C., water contains 215.6 μmol/L of O2. The experimentally determined oxygen content in the coated AOC suspension is a composite of oxygen content in water and in the perfluorocarbon. Quantitatively, CO2 total=CO2 PFC VPFC+CO2 water Vwater=CO2 PFC VPFC+CO2 water(1−VPFC) (Equation 1) where, CO2 total is the total oxygen concentration of the sample, and CO2 PFC and CO2 water are the concentrations of oxygen in PFC and water at a given partial pressure of oxygen and temperature, and similarly V's are the volume fractions of PFC and water. […] The reaction was allowed to proceed for 30 minutes at 37° C. and the absorption was measured at 540 nm in order to estimate the amount of oxygen present in the uncoated and coated products.

oxygen content, estimated CSAT: 3,640 μmol/L
SMILES: FC(F)(F)C(F)(F)C(F)(F)C(F)(F)C(F)(F)C(F)(F)C(F)(F)C(F)(F)Br [emulsified PFOB, perfluorooctylbromide]
